Measured values from the supplement of paper PMC12463676, “Small-molecule dissolution of stress granules by redox modulation benefits ALS models” (Nature Chemical Biology, 2025).

Assays:
[1] = compound: NC(=O)CCCCC1CCSS1 [lipoamide]; assay: thermal stability z-score vs DMSO; higher = more thermally stabilized by treatment; conditions: HeLa, lipoamide concentration 100 µM
Description: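 Cellular thermal proteome profiling in HeLa cells. Cells were treated with 100 µM lipoamide for 1 h, with or without 1 mM arsenate for a further 1 h, then heated to ten temperatures (37-66.3 °C), and soluble protein was quantified by TMT mass spectrometry relative to 0.1% DMSO controls. The thermal stability score (sum of log2 fold changes minus the abundance score) was transformed to a z-score; mean of n = 3 experiments.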

[2] = compound: O=[As]([O-])(O)O.[K+] [potassium arsenate]; assay: as above; conditions: HeLa; arsenate concentration 1 mM
Description: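 Cellular thermal proteome profiling in HeLa cells treated with 1 mM arsenate for 1 h (DMSO pretreatment), heated to ten temperatures (37-66.3 °C). Soluble protein was quantified by TMT mass spectrometry relative to DMSO controls; the thermal stability score was transformed to a z-score; mean of n = 3 experiments.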

[3] = arsenate co-treatment: 1 mM arsenate 1 h
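Also: each temperature applied for 3 min, abundance score taken as mean log2 fold change at the two lowest temperatures, z-score obtained by mean subtraction and division by SD.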

Chain of UniProt P17174 (P17174 whole entry): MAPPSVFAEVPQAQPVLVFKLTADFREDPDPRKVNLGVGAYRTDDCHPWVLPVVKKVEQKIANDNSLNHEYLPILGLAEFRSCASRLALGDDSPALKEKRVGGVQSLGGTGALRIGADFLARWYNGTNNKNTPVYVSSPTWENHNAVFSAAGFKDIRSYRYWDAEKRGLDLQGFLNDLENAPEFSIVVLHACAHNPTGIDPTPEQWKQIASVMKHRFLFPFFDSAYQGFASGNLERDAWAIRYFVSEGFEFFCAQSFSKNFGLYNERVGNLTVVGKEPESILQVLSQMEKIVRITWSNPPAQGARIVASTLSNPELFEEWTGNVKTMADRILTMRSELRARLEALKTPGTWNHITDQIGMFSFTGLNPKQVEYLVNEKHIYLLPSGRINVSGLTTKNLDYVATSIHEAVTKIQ
Chain of UniProt P23786 (P23786 whole entry): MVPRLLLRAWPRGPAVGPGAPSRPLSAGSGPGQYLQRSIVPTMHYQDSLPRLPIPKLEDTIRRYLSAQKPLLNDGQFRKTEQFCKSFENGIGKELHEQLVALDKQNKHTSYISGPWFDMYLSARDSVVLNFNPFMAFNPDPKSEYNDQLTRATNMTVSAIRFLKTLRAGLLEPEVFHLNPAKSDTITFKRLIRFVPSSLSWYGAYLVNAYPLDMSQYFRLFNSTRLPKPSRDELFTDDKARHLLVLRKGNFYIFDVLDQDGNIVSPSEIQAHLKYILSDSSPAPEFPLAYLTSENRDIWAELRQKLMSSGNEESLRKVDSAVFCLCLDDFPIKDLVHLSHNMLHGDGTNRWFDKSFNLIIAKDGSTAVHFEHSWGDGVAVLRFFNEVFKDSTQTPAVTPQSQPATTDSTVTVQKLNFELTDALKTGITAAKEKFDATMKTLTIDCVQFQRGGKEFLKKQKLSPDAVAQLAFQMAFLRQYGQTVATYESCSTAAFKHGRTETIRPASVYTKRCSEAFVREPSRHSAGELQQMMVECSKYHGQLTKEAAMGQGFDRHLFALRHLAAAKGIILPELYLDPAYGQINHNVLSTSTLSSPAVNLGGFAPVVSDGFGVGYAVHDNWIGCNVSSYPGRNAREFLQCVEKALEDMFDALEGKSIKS
Chain of UniProt Q0VDF9 (Q0VDF9 whole entry): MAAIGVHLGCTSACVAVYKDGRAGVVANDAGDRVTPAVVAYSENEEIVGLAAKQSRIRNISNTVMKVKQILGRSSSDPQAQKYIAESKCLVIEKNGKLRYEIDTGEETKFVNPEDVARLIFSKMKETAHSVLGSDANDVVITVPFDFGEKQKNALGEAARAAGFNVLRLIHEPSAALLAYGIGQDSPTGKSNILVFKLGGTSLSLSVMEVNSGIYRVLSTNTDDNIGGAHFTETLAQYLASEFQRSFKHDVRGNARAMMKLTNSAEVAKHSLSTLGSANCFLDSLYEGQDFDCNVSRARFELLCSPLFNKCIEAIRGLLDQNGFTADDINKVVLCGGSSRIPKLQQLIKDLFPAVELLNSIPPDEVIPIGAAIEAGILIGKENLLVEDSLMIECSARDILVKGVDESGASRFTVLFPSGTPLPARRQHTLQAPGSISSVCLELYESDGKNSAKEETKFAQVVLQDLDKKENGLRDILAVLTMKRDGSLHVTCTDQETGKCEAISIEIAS
Chain of UniProt P07814 (P07814 whole entry): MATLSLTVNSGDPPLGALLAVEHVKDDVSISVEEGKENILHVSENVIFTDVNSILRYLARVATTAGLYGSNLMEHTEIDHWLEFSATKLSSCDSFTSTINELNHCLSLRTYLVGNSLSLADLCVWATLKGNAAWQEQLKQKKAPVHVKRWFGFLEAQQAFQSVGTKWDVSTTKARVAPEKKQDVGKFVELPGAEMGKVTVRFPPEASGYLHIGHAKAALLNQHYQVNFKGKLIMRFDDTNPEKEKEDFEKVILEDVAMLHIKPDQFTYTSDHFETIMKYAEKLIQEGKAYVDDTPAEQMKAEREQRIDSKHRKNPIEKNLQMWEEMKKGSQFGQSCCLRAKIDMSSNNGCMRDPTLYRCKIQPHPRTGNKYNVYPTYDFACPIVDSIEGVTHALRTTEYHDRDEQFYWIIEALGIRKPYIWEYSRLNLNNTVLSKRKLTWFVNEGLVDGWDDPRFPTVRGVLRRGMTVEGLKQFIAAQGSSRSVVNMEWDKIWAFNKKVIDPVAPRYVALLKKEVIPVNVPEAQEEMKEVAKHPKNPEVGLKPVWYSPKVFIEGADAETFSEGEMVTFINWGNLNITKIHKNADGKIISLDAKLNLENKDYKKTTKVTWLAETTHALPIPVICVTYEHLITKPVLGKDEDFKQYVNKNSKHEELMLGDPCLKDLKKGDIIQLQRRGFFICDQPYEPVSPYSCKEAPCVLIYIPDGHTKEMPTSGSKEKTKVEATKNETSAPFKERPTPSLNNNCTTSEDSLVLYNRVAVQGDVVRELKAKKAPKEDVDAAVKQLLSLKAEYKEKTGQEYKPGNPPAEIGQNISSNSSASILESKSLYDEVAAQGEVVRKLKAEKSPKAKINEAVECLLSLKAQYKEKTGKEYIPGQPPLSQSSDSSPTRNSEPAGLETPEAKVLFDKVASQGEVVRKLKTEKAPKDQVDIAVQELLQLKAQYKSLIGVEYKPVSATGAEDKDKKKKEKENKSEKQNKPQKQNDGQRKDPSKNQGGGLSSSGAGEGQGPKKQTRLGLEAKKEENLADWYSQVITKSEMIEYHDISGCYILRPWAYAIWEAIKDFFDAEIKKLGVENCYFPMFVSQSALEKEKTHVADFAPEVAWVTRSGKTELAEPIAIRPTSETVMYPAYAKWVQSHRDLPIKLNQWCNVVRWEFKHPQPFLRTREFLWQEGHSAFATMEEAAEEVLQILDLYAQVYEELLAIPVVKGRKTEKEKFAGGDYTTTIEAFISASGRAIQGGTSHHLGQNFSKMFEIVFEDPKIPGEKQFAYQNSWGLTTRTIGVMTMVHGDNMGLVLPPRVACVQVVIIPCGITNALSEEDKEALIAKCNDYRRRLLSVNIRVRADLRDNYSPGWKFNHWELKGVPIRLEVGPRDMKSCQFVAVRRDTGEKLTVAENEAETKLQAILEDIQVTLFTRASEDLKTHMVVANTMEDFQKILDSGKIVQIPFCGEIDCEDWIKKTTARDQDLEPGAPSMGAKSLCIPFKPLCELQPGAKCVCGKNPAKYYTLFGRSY
Chain of UniProt Q9NRG7 (Q9NRG7 whole entry): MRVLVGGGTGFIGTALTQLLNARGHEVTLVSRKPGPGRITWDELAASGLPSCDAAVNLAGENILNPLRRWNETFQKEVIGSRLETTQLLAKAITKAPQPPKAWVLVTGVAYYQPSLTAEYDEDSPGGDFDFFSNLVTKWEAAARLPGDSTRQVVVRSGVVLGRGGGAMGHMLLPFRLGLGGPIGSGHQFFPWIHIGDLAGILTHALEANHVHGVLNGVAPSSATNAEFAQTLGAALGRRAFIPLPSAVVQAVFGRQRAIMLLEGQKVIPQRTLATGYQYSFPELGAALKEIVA
Chain of UniProt P09972 (P09972 whole entry): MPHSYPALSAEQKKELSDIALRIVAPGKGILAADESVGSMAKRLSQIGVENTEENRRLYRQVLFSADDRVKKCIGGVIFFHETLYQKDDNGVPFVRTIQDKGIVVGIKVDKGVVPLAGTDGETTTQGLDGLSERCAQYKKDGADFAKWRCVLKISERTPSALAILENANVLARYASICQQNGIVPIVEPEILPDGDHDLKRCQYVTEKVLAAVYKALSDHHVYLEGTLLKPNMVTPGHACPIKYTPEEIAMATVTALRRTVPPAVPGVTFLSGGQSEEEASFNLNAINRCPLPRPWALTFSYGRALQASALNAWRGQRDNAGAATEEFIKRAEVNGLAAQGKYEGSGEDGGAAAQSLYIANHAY
Chain of UniProt O94763 (O94763 whole entry): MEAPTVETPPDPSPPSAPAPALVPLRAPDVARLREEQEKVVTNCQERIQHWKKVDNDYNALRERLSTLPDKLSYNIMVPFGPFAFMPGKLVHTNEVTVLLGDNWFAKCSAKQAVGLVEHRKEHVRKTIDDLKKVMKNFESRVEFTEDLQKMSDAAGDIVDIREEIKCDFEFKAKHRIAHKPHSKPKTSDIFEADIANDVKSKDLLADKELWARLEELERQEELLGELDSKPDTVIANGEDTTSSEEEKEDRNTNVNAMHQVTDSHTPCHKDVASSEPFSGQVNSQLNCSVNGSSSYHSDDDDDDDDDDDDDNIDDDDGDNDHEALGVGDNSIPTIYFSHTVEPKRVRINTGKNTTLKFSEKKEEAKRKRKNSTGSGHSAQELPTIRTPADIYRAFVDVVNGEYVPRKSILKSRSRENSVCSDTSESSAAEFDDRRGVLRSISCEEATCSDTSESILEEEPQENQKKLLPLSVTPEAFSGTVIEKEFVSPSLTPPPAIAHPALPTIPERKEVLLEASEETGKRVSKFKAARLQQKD
Chain of UniProt P11177 (P11177 whole entry): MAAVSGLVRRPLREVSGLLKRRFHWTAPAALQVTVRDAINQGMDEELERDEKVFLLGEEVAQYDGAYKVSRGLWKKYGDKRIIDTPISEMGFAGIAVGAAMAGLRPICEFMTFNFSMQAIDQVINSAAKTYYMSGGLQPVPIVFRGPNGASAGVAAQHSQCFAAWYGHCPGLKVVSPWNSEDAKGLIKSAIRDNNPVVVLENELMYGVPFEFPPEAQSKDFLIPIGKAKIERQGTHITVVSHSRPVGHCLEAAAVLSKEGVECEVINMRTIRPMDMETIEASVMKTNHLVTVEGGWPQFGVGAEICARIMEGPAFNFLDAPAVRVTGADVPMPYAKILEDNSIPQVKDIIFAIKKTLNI
Chain of UniProt Q8WVC6 (Q8WVC6 whole entry): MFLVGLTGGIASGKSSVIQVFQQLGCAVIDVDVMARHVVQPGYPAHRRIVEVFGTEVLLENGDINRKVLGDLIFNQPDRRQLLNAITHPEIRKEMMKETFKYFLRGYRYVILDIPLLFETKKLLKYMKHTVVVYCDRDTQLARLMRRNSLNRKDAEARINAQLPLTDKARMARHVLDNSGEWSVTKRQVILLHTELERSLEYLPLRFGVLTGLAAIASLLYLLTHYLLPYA

Target	thermal stability z-score [1, 3]	thermal stability z-score ([1]; arsenate co-treatment: none)	thermal stability z-score [2]
ADH5 (UniProt P11766)	1.89	0.761	-1.99
CPT2 (UniProt P23786)	-0.296	0.0116	0.228
RPA1 (UniProt P27694)	-0.6	-0.317	0.0213
SIRT5 (UniProt Q9NXA8)	-0.814	-1.26	-1.02
SAP18 (UniProt O00422)	0.465	0.0358	0.519
POGLUT1 (UniProt Q8NBL1)	-3.26	-3.23	1.16
MYO1B (UniProt O43795)	0.967	0.54	-2.1
DDX47 (UniProt Q9H0S4)	1.72	0.253	0.634
RPL38 (UniProt P63173)	0.982	0.439	-0.704
NOL12|V9GYY5 (UniProt V9GYY5)	0.0645	-1.5	0.699
SDR39U1 (UniProt Q9NRG7)	0.717	0.0552	0.471
SEC24C (UniProt P53992)	0.0998	0.0631	0.38
ALG10|ALG10B	0.489	-0.122	-0.0103
EPRS (UniProt P07814)	-0.648	-0.436	0.432
EPB41L2 (UniProt O43491)	-0.283	-0.0411	0.128
EGFR (UniProt P00533)	-1.07	-0.989	-1.02
ALDOC (UniProt P09972)	-0.284	-0.526	-0.67
PDHB (UniProt P11177)	0.134	0.282	-2.38

Target	thermal stability z-score [1, 3]	thermal stability z-score ([1]; arsenate co-treatment: none)	thermal stability z-score [2]
BRI3BP (UniProt Q8WY22)	0.227	0.0879	-0.544
DCAKD (UniProt Q8WVC6)	-0.963	-1.05	0.214
TMEM259 (UniProt Q4ZIN3)	-0.193	-0.832	0.701
SYNE2 (UniProt Q8WXH0)	-0.0307	0.18	-0.123
PSMD6 (UniProt Q15008)	-0.22	0.0409	-0.212
USO1 (UniProt O60763)	0.293	0.095	0.146
HNRNPUL1 (UniProt Q9BUJ2)	0.162	0.44	0.283
GOT1 (UniProt P17174)	0.656	0.623	0.118
URI1 (UniProt O94763)	-0.325	-0.193	0.52
EXOSC10 (UniProt Q01780)	0.0236	-0.0314	-0.437
RAD54L2 (UniProt Q9Y4B4)	-0.0715	0.0462	-0.235
NEK7 (UniProt Q8TDX7)	-0.813	-0.453	-0.53
ATP5H (UniProt O75947)	0.72	0.597	0.504
PLCB3 (UniProt Q01970)	-0.0239	-0.358	-0.557
HSPA14 (UniProt Q0VDF9)	-0.553	-0.226	0.837
COPRS (UniProt Q9NQ92)	0.227	0.791	-0.822
OSBPL1A (UniProt Q9BXW6)	-1.13	0.611	0.355
